In this assay the target is T1, canine TRPM8 (Canis lupus familiaris, UniProt Q1A7N1).
T1 construct: expressed in transfected cells
Put plainly: In Vitro Canine TRPM8 Functional Assay (intracellular Ca2+ fluorescence, icilin activation, HEK293 cells). To be noted: for IC50: HEK293 cells expressing canine TRPM8, icilin activation, individually measured values (batches/salt forms), read-out: IC50 (nM), in vitro TRP M8 Activity. It is filed as cell-based. Here is the method:
The changes in fluorescent signal were monitored by a fluorescence plate reader, either a FLIPR™ (Molecular Devices) or FDSS (Hamamatsu). […] Cells were maintained in 5% CO2 at 37° C. At 24 hr prior to assay, cells were seeded in black wall, clear-base poly-D-lysine coated 384-well plates (BD Biosciences, NJ, USA) at a density of 5,000 cells per well in culture medium and grown overnight in 5% CO2 at 37° C. On assay day, growth media was removed, and cells were loaded with Calcium 3 Dye (Molecular Devices) for 35 min at 37° C., under 5% CO2 and then incubated for 25 min at room temperature and atmosphere. Subsequently, cells were tested for agonist-induced increases in intracellular Ca^2+ levels using FLIPR™ or FDSS. […] Maximal fluorescence intensity (FI) achieved upon addition of icilin was exported from the FLIPR™ or FDSS software and further analyzed using GraphPad Prism 3.02 (Graph Pad Software Inc., CA, U.S.A.). Basal FI was subtracted prior to normalizing data to percent of maximal response. Curves were generated using the average of quadruplicate wells for each data point using nonlinear regression of either sigmoidal dose response or sigmoidal dose response (variable slope). Finally, IC50 values were calculated with the best-fit curve determined by GraphPad Prism

The mark [1] stands for this setting: HEK293, 0.2 μM test compound, individually measured values, read-out: % Inh (%) @0.2 μM, in vitro TRP M8 Activity.
Where [2] appears, read: HEK293, read-out: % Inh (%) @0.2 μM, in vitro TRP M8 Activity, 0.2 μM test compound, individually measured values.

The values that follow come from patent US20120202856A1, “SUBSTITUTED BENZIMDAZOLE DERIVATIVES USEFUL AS TRPM8 RECEPTOR MODULATORS” (priority 2011, published 2012).

Where “and” joins values, the source holds several entries; their conditions need not be identical. Equal values may be shown once. Where a name gives a salt, the structure may show the parent alone. Read-outs that look alike come from different tables or passages of the source.

T1 sequence (Q1A7N1 1-1104): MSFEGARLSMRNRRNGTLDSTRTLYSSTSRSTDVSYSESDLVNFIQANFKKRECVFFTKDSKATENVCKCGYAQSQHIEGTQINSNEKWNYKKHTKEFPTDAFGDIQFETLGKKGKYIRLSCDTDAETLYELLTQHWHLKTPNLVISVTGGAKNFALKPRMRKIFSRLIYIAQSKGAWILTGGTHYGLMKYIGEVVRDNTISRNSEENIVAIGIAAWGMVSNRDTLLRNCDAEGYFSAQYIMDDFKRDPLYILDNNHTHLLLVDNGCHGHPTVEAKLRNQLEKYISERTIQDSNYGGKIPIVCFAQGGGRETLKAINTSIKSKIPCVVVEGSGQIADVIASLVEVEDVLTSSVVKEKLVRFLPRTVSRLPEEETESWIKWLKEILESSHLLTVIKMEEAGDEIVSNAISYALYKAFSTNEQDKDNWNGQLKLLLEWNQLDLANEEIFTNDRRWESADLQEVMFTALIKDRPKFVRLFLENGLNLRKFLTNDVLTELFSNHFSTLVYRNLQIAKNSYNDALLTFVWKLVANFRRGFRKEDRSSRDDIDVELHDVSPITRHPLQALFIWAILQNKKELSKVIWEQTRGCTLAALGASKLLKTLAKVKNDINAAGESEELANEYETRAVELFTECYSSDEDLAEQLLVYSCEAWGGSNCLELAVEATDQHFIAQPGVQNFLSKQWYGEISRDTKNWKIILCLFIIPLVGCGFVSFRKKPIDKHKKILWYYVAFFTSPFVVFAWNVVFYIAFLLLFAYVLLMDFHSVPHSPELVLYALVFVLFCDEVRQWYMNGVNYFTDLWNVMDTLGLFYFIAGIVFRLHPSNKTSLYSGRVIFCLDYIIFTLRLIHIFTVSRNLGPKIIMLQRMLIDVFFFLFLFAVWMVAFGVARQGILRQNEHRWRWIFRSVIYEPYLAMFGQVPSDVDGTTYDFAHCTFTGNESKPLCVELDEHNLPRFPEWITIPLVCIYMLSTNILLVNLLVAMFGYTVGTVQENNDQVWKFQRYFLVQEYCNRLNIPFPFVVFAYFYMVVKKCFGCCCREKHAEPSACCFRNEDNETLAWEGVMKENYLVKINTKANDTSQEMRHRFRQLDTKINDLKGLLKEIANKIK

Turning to `Cn1nc(-c2nc3cc(-c4ccccc4C(F)(F)F)ccc3[nH]2)cc1C1CCC1` [Compound 91, 2-(5-Cyclobutyl-1-methyl-1H-pyrazol-3-yl)-5-(2-trifluoromethyl-phenyl)-1H-benzimidazole], the inhibition at 0.2 µM under setting [1] worked out at 7%.
Take `Cn1nc(C(C)(C)C)c(Cl)c1-c1nc2cc(-c3c(F)cccc3C#N)cc(C(F)(F)F)c2[nH]1` [Compound 146, 2-[2-(5-tert-Butyl-4-chloro-2-methyl-2H-pyrazol-3-yl)-7-trifluoromethyl-1H-benzimidazol-5-yl]-3-fluoro-benzonitrile hydrochloride]: the IC50 (usually the point on the concentration scale where inhibition reaches its midpoint) was 12.2 nM and 15 nM. Also, under setting [1], the inhibition at 0.2 µM is 100%.
As to `Cc1c(C(C)(C)C)nn(C)c1-c1nc2cc(-c3c(F)cccc3OC(F)(F)F)ccc2[nH]1` [Compound 96, 2-(5-tert-Butyl-2,4-dimethyl-2H-pyrazol-3-yl)-5-(2-fluoro-6-trifluoromethoxy-phenyl)-1H-benzimidazole hydrochloride], the IC50 was 6.6 nM.
The same measure, in the same setting: as for `Cc1c(C(C)(C)C)nn(C)c1-c1nc2cc(-c3c(C(F)(F)F)cccc3C(F)(F)F)ccc2[nH]1` [Compound 97, 5-(2,6-Bis-trifluoromethyl-phenyl)-2-(5-tert-butyl-2,4-dimethyl-2H-pyrazol-3-yl)-1H-benzimidazole hydrochloride], the figure is 6.9 nM.
As for `Cc1c(C(C)(C)C)nn(C)c1-c1nc2cc(-c3ccccc3Cl)cc(C(F)(F)F)c2[nH]1` [Compound 121, 2-(5-tert-Butyl-2,4-dimethyl-2H-pyrazol-3-yl)-5-(2-chloro-phenyl)-7-trifluoromethyl-1H-benzimidazole hydrochloride], the IC50 was determined as 3.1 nM.
On the same count and under the same terms, as for `CC(C)Cc1cc(-c2nc3ccc(-c4ccccc4OC(F)(F)F)cc3[nH]2)on1` [Compound 23, 2-(3-Isobutylisoxazol-5-yl)-6-(2-trifluoromethoxyphenyl)-1H-benzimidazole hydrochloride], the figure is 30 nM; as for `Cn1nc(C(C)(C)C)c(C#N)c1-c1nc2cc(-c3c(F)cccc3F)cc(C(F)(F)F)c2[nH]1` [Compound 151, 3-tert-Butyl-5-[5-(2,6-difluoro-phenyl)-7-trifluoromethyl-1H-benzimidazol-2-yl]-1-methyl-1H-pyrazole-4-carbonitrile sodium salt], 4.2 nM and 6 nM and 3.8 nM.
As for `Cl.Cn1nc(C(C)(C)C)c(C#N)c1-c1nc2cc(-c3ccccc3Cl)cc(C(F)(F)F)c2[nH]1` [Compound 148, 3-tert-Butyl-5-[5-(2-chloro-phenyl)-7-trifluoromethyl-1H-benzimidazol-2-yl]-1-methyl-1H-pyrazole-4-carbonitrile hydrochloride], the IC50 was 5 nM and 4.1 nM and 2.9 nM. Also, the “% Inh (%) @0.2 μM, in vitro TRP M8 Activity” value (0.2 μM test compound, individually measured values, hydrochloride, 0.2 µM) was 99%. Also, the inhibition at 0.2 µM under setting [1] came to 100%.
As to `CC(C)c1cc(-c2nc3cc(-c4ccccc4)ccc3[nH]2)on1` [Compound 1, 2-(3-Isopropylisoxazol-5-yl)-5-phenyl-1H-benzimidazole sodium salt], the IC50 was 111 nM.
Still for that read-out and setting: as for `Cc1c(C(C)(C)C)noc1-c1nc2cc(-c3c(F)cccc3F)ccc2[nH]1` [Compound 109, 2-(3-tert-Butyl-4-methyl-isoxazol-5-yl)-5-(2,6-difluoro-phenyl)-1H-benzimidazole hydrochloride], the figure is 13.9 nM.
Regarding `CC(C)(C)c1cc(-c2nc3cc(-c4ccccc4C(F)(F)F)cc(C(F)(F)F)c3[nH]2)on1` [Compound 142, 2-(3-tert-Butyl-isoxazol-5-yl)-7-trifluoromethyl-5-(2-trifluoromethyl-phenyl)-1H-benzimidazole sodium salt], the IC50 was 3 nM and 3.3 nM. In addition, under setting [2], the inhibition at 0.2 µM was 99%.
On to `FC(F)(F)Oc1ccccc1-c1ccc2[nH]c(-c3cc(Cl)no3)nc2c1` [Compound 34, 2-(3-Chloroisoxazol-5-yl)-5-(2-trifluoromethoxyphenyl)-1H-benzimidazole sodium salt], for which the IC50 is 72.9 nM.
For `Cc1nc(C(C)(C)C)oc1-c1nc2cc(-c3ccccc3OC(F)(F)F)cc(Cl)c2[nH]1` [Compound 183, 2-(2-tert-Butyl-4-methyl-oxazol-5-yl)-7-chloro-5-(2-trifluoromethoxy-phenyl)-1H-benzimidazole hydrochloride], the inhibition at 0.2 µM under setting [1] came out at 4%.
In the case of `Cc1c(C(C)(C)C)nn(C)c1-c1nc2cc(-c3ccccc3C(F)(F)F)cc(Cl)c2[nH]1` [Compound 135, 2-(5-tert-Butyl-2,4-dimethyl-2H-pyrazol-3-yl)-7-chloro-5-(2-trifluoromethyl-phenyl)-1H-benzimidazole hydrochloride], the IC50 is 4 nM and 6.9 nM. The inhibition at 0.2 µM under setting [1] was 99%.
Take `Cn1nc(C(C)(C)C)cc1-c1nc2cc(-c3ccccc3F)ccc2[nH]1` [Compound 57, 2-(5-tert-Butyl-2-methyl-2H-pyrazol-3-yl)-5-(2-fluoro-phenyl)-1H-benzimidazole trifluoroacetic acid salt]: the IC50 was 14.6 nM and 20.7 nM.
The same measure, in the same setting: next, `FC(F)(F)c1ccccc1-c1ccc2[nH]c(-c3cc(Br)no3)nc2c1` [Compound 42, 2-(3-Bromoisoxazol-5-yl)-5-(2-trifluoromethylphenyl)-1H-benzimidazole sodium salt]: 151 nM; `COc1ccccc1-c1ccc2[nH]c(-c3cc(C(C)(C)C)no3)nc2c1` [Compound 8, 2-(3-tert-Butylisoxazol-5-yl)-5-(2-methoxyphenyl)-1H-benzimidazole sodium salt]: 11.1 nM and 8 nM.
In the case of `Cn1nc(C(C)(C)C)c(C#N)c1-c1nc2cc(-c3c(F)cccc3OC(F)(F)F)cc(Cl)c2[nH]1` [Compound 173, 3-tert-Butyl-5-[7-chloro-5-(2-fluoro-6-trifluoromethoxy-phenyl)-1H-benzimidazol-2-yl]-1-methyl-1H-pyrazole-4-carbonitrile sodium salt], the IC50 worked out at 10.7 nM. Also, the inhibition at 0.2 µM under setting [1] worked out at 100%.
On to `Cc1oc(C(C)(C)C)nc1-c1nc2cc(-c3ccccc3)cc(C(F)(F)F)c2[nH]1` [Compound 157, 2-(2-tert-Butyl-5-methyl-oxazol-4-yl)-5-phenyl-7-trifluoromethyl-1H-benzimidazole hydrochloride], for which the inhibition at 0.2 µM under setting [1] came to 41%.
As to `CC(C)(C)c1cc(-c2nc3cc(-c4c(F)cccc4F)ccc3[nH]2)on1` [Compound 67, 2-(3-tert-Butyl-isoxazol-5-yl)-5-(2,6-difluoro-phenyl)-1H-benzimidazole trifluoroacetic acid salt], the IC50 was 15.3 nM and 16.7 nM.
`CC(C)n1nc(C(C)(C)C)cc1-c1nc2cc(-c3ccccc3OC(F)(F)F)ccc2[nH]1` [Compound 47, 2-(5-tert-Butyl-2-isopropyl-2H-pyrazol-3-yl)-5-(2-trifluoromethoxyphenyl)-1H-benzimidazole sodium salt]: the IC50 was found to be 49.6 nM.
For the molecule `Cc1c(C(C)(C)C)noc1-c1nc2cc(-c3ccccc3Cl)ccc2[nH]1` [Compound 107, 2-(3-tert-Butyl-4-methyl-isoxazol-5-yl)-5-(2-chloro-phenyl)-1H-benzimidazole hydrochloride], the concentration for half-maximal inhibition (IC50) worked out at 11.9 nM.
Still for that read-out and setting: next, `CC(C)(C)c1cc(-c2nc3cc(-c4ccccc4C(F)(F)F)ccc3[nH]2)n(Cc2ccccc2)n1` [Compound 48, 2-(5-tert-Butyl-2-benzyl-2H-pyrazol-3-yl)-5-(2-trifluoromethylphenyl)-1H-benzimidazole sodium salt]: 18.4 nM.
With `Cn1nc(C(C)(C)C)c(C(F)(F)F)c1-c1nc2cc(-c3ccccc3F)cc(C(F)(F)F)c2[nH]1` [Compound 185, 2-(5-tert-Butyl-2-methyl-4-trifluoromethyl-2H-pyrazol-3-yl)-5-(2-fluoro-phenyl)-7-trifluoromethyl-1H-benzimidazole sodium salt], the IC50 came out at 13.8 nM. For the same molecule, under setting [1], the inhibition at 0.2 µM was 99%.
In the case of `Cn1nc(C(C)(C)C)c(Cl)c1-c1nc2cc(-c3c(C(F)(F)F)cccc3C(F)(F)F)ccc2[nH]1` [Compound 87, 5-(2,6-Bis-trifluoromethyl-phenyl)-2-(5-tert-butyl-4-chloro-2-methyl-2H-pyrazol-3-yl)-1H-benzimidazole hydrochloride], the IC50 was 5.7 nM and 8.6 nM.
In the case of `CCc1ccccc1-c1ccc2[nH]c(-c3cc(C(C)(C)C)nn3C)nc2c1` [Compound 56, 2-(5-tert-Butyl-2-methyl-2H-pyrazol-3-yl)-5-(2-ethyl-phenyl)-1H-benzimidazole trifluoroacetic acid salt], the IC50 was 10.7 nM.
As for `CC(C)(C)c1cc(-c2nc3cc(-c4ccccc4OC(F)(F)F)cc(C(F)(F)F)c3[nH]2)on1` [Compound 143, 2-(3-tert-Butyl-isoxazol-5-yl)-5-(2-trifluoromethoxy-phenyl)-7-trifluoromethyl-1H-benzimidazole sodium salt], the concentration for half-maximal inhibition (IC50) was 2.5 nM and 3.7 nM. Moreover, the inhibition at 0.2 µM under setting [2] worked out at 99%.
For the molecule `COc1cccc(F)c1-c1ccc2[nH]c(-c3cnc(C(C)(C)C)n3C)nc2c1` [Compound 70, 2-(2-tert-Butyl-3-methyl-3H-imidazol-4-yl)-5-(2-fluoro-6-methoxy-phenyl)-1H-benzimidazole trifluoroacetic acid salt], the IC50 was found to be 134 nM.
